The data set relates to H226 lung cancer cells. The data set can be described thus: Long-term growth curve with repeated electroporation, H226. Format: cell-based, human. The conditions noted are these: 1.6 μM electroporated, repeated on days 6, 17 and 25; day 31; relative to control cells (100%). As for the experimental part:
To evaluate the therapeutic activity of hsa-miR-147 over an extended period of time, the inventors conducted growth curve experiments in the presence of miRNA for up to 31 days in H226 lung cancer cells. Since in vitro transfections of naked interfering RNAs, such as synthetic miRNA, are transient by nature and compromised by the dilution of the oligo during ongoing cell divisions, miRNA was administered at multiple time points (Bartlett et al., 2006; Bartlett et al., 2007). To accommodate miRNA delivery into a large quantity of cells, hsa-miR-147 or negative control miRNA were delivered by the electroporation method. Briefly, 1×10^6 H226 were electroporated in triplicate with 1.6 μM hsa-miR-147 or negative control using the BioRad Gene Pulser Xcell™ instrument (BioRad Laboratories Inc., Hercules, Calif., USA), seeded and propagated in regular growth medium. When the control cells reached confluence (days 6, 17 and 25), cells were harvested, counted and electroporated again with the respective miRNAs. […] The population doubling was calculated from these electroporation events using the formula PD=ln(Nf/N0)/ln2 and adjusting for the fact that approximately 72% of newly seeded cells adhere to the plate. […]

As to “hsa-miR-147: Synthetic pre-miR-147 (Ambion AM17100; Dharmacon in vivo); mature sequence GUGUGUGGAAAUGCUUCUGC, MIMAT0000251, SEQ ID NO:114 (synthetic pre-miR (Ambion/Dharmacon), chemistry not given here; listed as Homo sapiens)”, the “inhibition of H226 cell growth” value was 90.9% and the remaining cells was found to be 9.1%.

Source of the values: US20090131356A1, “miR-15, miR-26, miR-31, miR-145, miR-147, miR-188, miR-215, miR-216, miR-331, mmu-miR-292-3P REGULATED GENES AND PATHWAYS AS TARGETS FOR THERAPEUTIC INTERVENTION” (ASURAGEN, INC., priority 2006, published 2009).
